How the values were obtained:
[1] = Metabolic stability in pooled human liver microsomes; type: in vitro ADME; conditions: 0.1 μM compound, human liver microsomes 0.1 mg/mL, NADPH, 37 °C, 60 minutes
Method: Compounds of the present invention (0.1 μM) were incubated with microsomes at 37 °C for a total of 60 minutes. The reaction contained pooled human liver microsomal protein (0.1 mg/mL) in potassium phosphate buffer with NADPH. At the indicated time points (0, 5, 15, 30 and 60 minutes). Samples were analyzed by LC/MS/MS and remaining parent drug was calculated using Microsoft Excel (2007). Obach R S, Drug Metab Dispos. 27(11):1350-1359 (1999).

[2] = system: MC3T3-E1 (mouse calvarial) osteoblast cells; experiment: Bone formation assay: rescue of sclerostin inhibition of mineralization (calcium concentration); type: cell-based; parameters: key to Sclerostin Inhibition of Mineralization; improvement over sclerostin alone: − indicates no improvement over sclerostin protein alone; + indicates an IC100 >10 μM; ++ indicates an IC100 <10 μM; conditions: for IC100: Mus musculus, MC3T3-E1, IC100 class, read-out: Sclerostin Inhibition of Mineralization, improvement over sclerostin alone; for Sclerostin Inhibition of Mineralization; improvement over sclerostin alone: IC100 class
Method: Mineralization (crystalline calcium phosphate formation) represents an in vitro model of bone formation. Using an assay in which the amount of mineralization is quantified by measuring total calcium after solubilization of deposited crystalline calcium phosphate, sclerostin was previously shown to inhibit mineralization in MC3T3-E1 (mouse calvarial) osteoblast cells. Li et al., J Bone Miner Res 24:578-588 (2008). Following the protocol described in Li et al., Compounds were assayed for their ability to rescue the inhibition of mineralization by sclerostin in MC3T3 osteoblast cells. […] Addition of a compound of Examples 1-14 neutralized sclerostin-mediated inhibition of mineralization, as reflected by the increase in calcium concentration.

sclerostin = target: T1, sclerostin (Homo sapiens, UniProt Q9BQB4); experiment: Modulation of sclerostin/Wnt activity: restoring Wnt3a signaling in the presence of sclerostin; type: cell-based; parameters: key to Sclerostin Inhibition Assay; improvement over sclerostin alone: − indicates no improvement over sclerostin protein alone; + indicates an IC100 >10 μM; ++ indicates an IC100 <10 μM; conditions: for Sclerostin Inhibition Assay; improvement over sclerostin alone: IC100 class, Wnt3a signaling in human embryonic cells in presence of sclerostin
T1 construct: host or cells: human embryonic cells (the assay cells)
T1 sequence (Q9BQB4 24-213): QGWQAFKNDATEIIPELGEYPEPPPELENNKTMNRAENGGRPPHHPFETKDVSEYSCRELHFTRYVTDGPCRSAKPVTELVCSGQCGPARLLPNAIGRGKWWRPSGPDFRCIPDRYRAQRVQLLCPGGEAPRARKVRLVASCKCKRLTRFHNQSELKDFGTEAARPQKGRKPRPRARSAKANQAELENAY
Method: Compounds synthesized in accordance with the methods of Examples 1-14 were assayed for their ability to restore Wnt signaling in the presence of sclerostin consistent with a known sclerostin antagonist, sclerostin Mab. See, Ellies et al., J Bone Miner Res 21:1738-1749 (2006). […] The addition of a known sclerostin antagonist inhibited sclerostin inhibition of Wnt3a signaling, thus restoring Wnt3a signaling in the cell (IC100 at 10 μM) (data not shown).

| Compound | Metabolic Stability [1] | IC100 [2] [µM] | Sclerostin Inhibition Assay; improvement over sclerostin alone (sclerostin) | Sclerostin Inhibition of Mineralization; improvement over sclerostin alone [2] | Effect of sclerostin treatment alone on mineralization (in words) [2] | Effect of sclerostin on Wnt3a signaling (in words) (sclerostin; human embryonic cells) |
| --- | --- | --- | --- | --- | --- | --- |
| COc1ccc2c3ccnc(C(F)(F)F)c3n(CCN3CCOCC3)c2c1F.Cl [Example 1, 4-(2-(8-Fluoro-7-methoxy-1-(trifluoromethyl)-9H-pyrido[3,4-b]indol-9-yl)ethyl)morpholine Hydrochloride Salt] | ++ (++ indicates a stability >1x) | > 10 | + (+ indicates an IC100 >10 μM) |  |  |  |
| COc1cc2c(cc1F)c1ccnc(C(F)(F)F)c1n2CCN1CCOCC1.Cl [Example 2, 4-(2-(6-fluoro-7-methoxy-1-(trifluoromethyl)-9H-pyrido[3,4-b]indol-9-yl)ethyl)morpholine Hydrochloride Salt] | ++ (++ indicates a stability >1x) | < 10 | ++ (++ indicates an IC100 <10 μM) |  |  |  |
| COc1cc2c(cc1F)c1ccnc(C(F)(F)F)c1n2CCN1CCC(OC)CC1.Cl [Example 3, 6-Fluoro-7-methoxy-9-(2-(4-methoxypiperidin-1-yl)ethyl)-1-(trifluoromethyl)-9H-pyrido[3,4-b]indole Hydrochloride Salt] | ++ (++ indicates a stability >1x) | < 10 | ++ (++ indicates an IC100 <10 μM) |  |  |  |
| COc1cc2c(cc1F)c1ccnc(C(F)(F)F)c1n2CCN1CCN(C)C(=O)C1.Cl [Example 4, 4-(2-(6-Fluoro-7-methoxy-1-(trifluoromethyl)-9H-pyrido[3,4-b]indol-9-yl)ethyl)-1-methylpiperazin-2-one Hydrochloride Salt] | ++ (++ indicates a stability >1x) | > 10 | + (+ indicates an IC100 >10 μM) |  |  |  |
| COc1cc2c(cc1F)c1ccnc(C(F)(F)F)c1n2CCN1CC(OC(F)F)C1.Cl [Example 5, 9-(2-(3-(Difluoromethoxy)azetidin-1-yl)ethyl)-6-fluoro-7-methoxy-1-(trifluoromethyl)-9H-pyrido[3,4-b]indole Hydrochloride Salt] | ++ (++ indicates a stability >1x) | < 10 | ++ (++ indicates an IC100 <10 μM) |  |  |  |
| COc1cc2c(cc1F)c1ccnc(C(F)(F)F)c1n2CCN1CC2CCC(C1)O2.Cl [Example 6, 3-(2-(6-Fluoro-7-methoxy-1-(trifluoromethyl)-9H-pyrido[3,4-b]indol-9-yl)ethyl)-8-oxa-3-azabicyclo[3.2.1]octane Hydrochloride Salt] | ++ (++ indicates a stability >1x) | < 10 | ++ (++ indicates an IC100 <10 μM) |  |  |  |
| COc1cc2c(cc1F)c1ccnc(C(F)(F)F)c1n2CCN1C2CCC1COC2.Cl [Example 7, 8-(2-(6-Fluoro-7-methoxy-1-(trifluoromethyl)-9H-pyrido[3,4-b]indol-9-yl)ethyl)-3-oxa-8-azabicyclo[3.2.1]octane Hydrochloride Salt] | + (+ indicates a stability of <1x) | < 10 | ++ (++ indicates an IC100 <10 μM) |  |  |  |
| COc1cc2c(cc1F)c1ccnc(C(F)(F)F)c1n2CCN1CC2CC1CO2.Cl (stereo not shown) [Example 8, 5-(2-(6-Fluoro-7-methoxy-1-(trifluoromethyl)-9H-pyrido[3,4-b]indol-9-yl)ethyl)-2-oxa-5-azabicyclo[2.2.1]heptane Hydrochloride Salt] | + (+ indicates a stability of <1x) | < 10 | ++ (++ indicates an IC100 <10 μM) |  |  |  |
| COc1cc2c(cc1F)c1ccnc(C(F)(F)F)c1n2CCN1CC(OC)C(OC)C1.Cl (stereo not shown) [Example 9, 9-(2-(3,4-Dimethoxypyrrolidin-1-yl)ethyl)-6-fluoro-7-methoxy-1-(trifluoromethyl)-9H-pyrido[3,4-b]indole Hydrochloride Salt] | + (+ indicates a stability of <1x) | < 10 | ++ (++ indicates an IC100 <10 μM) |  |  |  |
| COc1cc2c(cc1F)c1ccnc(C(F)(F)F)c1n2CCN1CCC(OC)C1.Cl (stereo not shown) [Example 10, 6-Fluoro-7-methoxy-9-(2-(3-methoxypyrrolidin-1-yl)ethyl)-1-(trifluoromethyl)-9H-pyrido[3,4-b]indole Hydrochloride Salt] | ++ (++ indicates a stability >1x) | < 10 | ++ (++ indicates an IC100 <10 μM) |  |  |  |
| COc1cc2c(cc1F)c1ccnc(C(F)(F)F)c1n2CCN1CC2COCC2C1.Cl (stereo not shown) [Example 11, 5-(2-(6-Fluoro-7-methoxy-1-(trifluoromethyl)-9H-pyrido[3,4-b]indol-9-yl)ethyl)hexahydro-1H-furo[3,4-c]pyrrole Hydrochloride Salt] | ++ (++ indicates a stability >1x) | < 10 | ++ (++ indicates an IC100 <10 μM) |  |  |  |
| COc1cc2c(cc1F)c1ccnc(C(F)(F)F)c1n2CCN1CCC(F)(F)CC1.Cl [Example 12, 9-(2-(4,4-Difluoropiperidin-1-yl)ethyl)-6-fluoro-7-methoxy-1-(trifluoromethyl)-9H-pyrido[3,4-b]indole Hydrochloride Salt] | ++ (++ indicates a stability >1x) |  | − | − |  |  |
| COc1cc2c(cc1F)c1ccnc(C(F)(F)F)c1n2CCn1cncn1.Cl [Example 13, 9-(2-(1H-1,2,4-Triazol-1-yl)ethyl)-6-fluoro-7-methoxy-1-(trifluoromethyl)-9H-pyrido[3,4-b]indole Hydrochloride Salt] | ++ (++ indicates a stability >1x) |  | − | − |  |  |
| COc1c(F)cc2c3ccnc(C(F)(F)F)c3n(CCN3CCOCC3)c2c1F.Cl [Example 14, 4-(2-(6,8-Difluoro-7-methoxy-1-(trifluoromethyl)-9H-pyrido[3,4-b]indol-9-yl)ethyl)morpholine Hydrochloride Salt] | + (+ indicates a stability of <1x) | < 10 | ++ (++ indicates an IC100 <10 μM) |  |  |  |
| Sclerostin protein: protein that antagonizes Wnt3a signaling and inhibits mineralization; the assay's inhibitor and baseline |  |  | − | − | significant decrease in mineralization | antagonized Wnt3a signaling |

Source: patent US12324809B2, “Fluoro beta-carboline compounds” (OSSIFI THERAPEUTICS LLC, priority 2018, dated 2025)
